Publication PMC5321741, “Arylmethylamino steroids as antiparasitic agents” (Nature Communications, 2017)
Where two headings read alike, the source gives them in different places.

Experiments:
[1] = system: P. falciparum (strain 3D7); experiment: 72 h 3H-hypoxanthine incorporation assay, asexual blood stages; assay type: cell-based, Plasmodium falciparum; details: 72 h 3H-hypoxanthine incorporation, asexual blood stages; read-out: Antiplasmodial activity IC50 Pf (3D7)
[2] = system: HUVEC; experiment: antiproliferative activity on HUVEC cells; assay type: cell-based; details: 72 h
Description: (§1) Compounds were tested for their antiproliferative activity on HUVEC and K-562 cells and for cytotoxicity on HeLa cells using standard protocols. K-562 (DSM ACC 10), HUVEC (ATCC CRL-1730), and HeLa (DSM ACC 57) cells were cultured as described previously. To assay the antiproliferative and cytotoxic effect, procedures were carried out as described before. In brief, for each experiment with K-562 and HeLa ∼10,000 cells were seeded per well of the 96-well microplates. For the cytotoxicity assay, the HeLa cells were preincubated for 48 h without the test substances. Cells were incubated for 72 h at 37 °C in a humidified atmosphere and 5% CO2. Suspension cultures of K-562 in microplates were analysed by an electronic cell analyzer system CASY 1 (SCHÄRFE, Reutlingen, Germany). The monolayer of the HUVEC and HeLa cells were fixed by glutaraldehyde (MERCK) and stained with a 0.05% solution of methylene blue (SERVA). After gently washing, the stain was eluted by 0.2 ml of 0.33 N HCl in the wells. The optical densities were measured at 660 nm in a microplate reader. The calculations of the different values of GI50 and CC50 were performed with the software Magellan (TECAN).

[3] = system: K-562; experiment: antiproliferative activity on K-562 cells; assay type: cell-based; details: 72 h
Description: as §1

[4] = system: HeLa; experiment: cytotoxicity on HeLa cells; assay type: cell-based; details: 72 h
Description: as §1

[5] = system: Bacillus subtilis JMRC:STI:10880; experiment: agar diffusion inhibition zone test; assay type: cell-based; details: Bacillus subtilis; 1o, 2o 1,000 µg/ml in DMSO; ciprofloxacin 5 µg/ml; solvent DMSO 12P; read-out: inhibition zone diameter, Bacillus subtilis (B1)
Description: (§2) The following organisms were tested at the Hans Knöll Institute in Jena, for their susceptibility to the compounds 1o and 2o: Bacillus subtilis JMRC:STI:10880, Staphylococcus aureus JMRC:ST:10760, Escherichia coli JMRC:ST:33699, Pseudomonas aeruginosa JMRC:ST:33772, Pseudomonas aeruginosa JMRC:ST:337721, Staphylococcus aureus JMRC:ST:33793 (multi-resistant), Enterococcus faecalis JMRC:ST:33700 (Vancomycin-resistant), Mycobacterium vaccae JMRC:STI:10670, Sporobolomyces salmonicolor (Basidiomycetes yeast) JMRC:ST:35974, Candida albicans (Ascomycetes yeast) JMRC:STI:25000, Penicillium notatum JMRC:STI:50164.
(§3) The bacteria were propagated in Mueller Hinton Broth (Oxoid)[49]. Yeast was propagated in YPD (yeast extract peptone dextrose): 1% yeast extract, 10 g; 2% peptone, 20 g; 2% agar, 20 g; 2% dextrose (glucose), 20 g; Sigma-Y1375. All bacteria and yeast suspensions were freshly made. The cultures were incubated at 37 °C for 16 h. Afterwards, the bacteria concentration from each culture was determined, and 34 ml of nutrient agar was loaded with 10^7 cells. These cultures were stored at 6-8 °C and could be used for seven days for the preparation of test plates. 34 ml of nutrient agar was liquefied and inoculated with the calculated amount of inoculum bacteria suspension at 48–50 °C, a temperature suitable for vegetative forms of bacteria. The inoculated nutrient media (34 ml each) were immediately poured into the prepared test plates (3 mm layer). With a punching device, 12 holes per test plate were punched out. For inhibiting bacterial growth, ciprofloxacin was used as a reference substance. The test substances were dissolved in distilled water, and 5 μg ml^−1 and 50 μl was added to each bacterial culture. For inhibition of fungal growth, amphotericin B served as the reference substance. The test substances were diluted to 10 μg ml^−1 in DMSO/methanol; 50 μl was added to each culture.
(§4) Configuring the test plate; volumes/punched hole: 50 μl; test solutions/test plate: 1 × 50 μl reference substance. Test plates were cultivated for 18 h at 37 °C. Analysis: Reading the inhibition zones (IZ): As IZ, the zone in which no growth can be determined with the naked eye is measured; the tiniest colonies on the edge of the inhibition zone were therefore not taken into consideration. The diameter (φ) of the IZ is measured in mm. The analysis of IZ φ is carried out internationally with the help of statistic procedures, especially regression analysis. With each test approach, the reference substance was brought along as a control; if there were deviations from allowed IZ φ, the test was repeated.
(§5) The inhibition of bacterial growth was determined using bacterial cultures grown in Müller-Hinton Bouillon, which was configured at barely visible opacity with the McFarland Standard Nr. 0.5, which indicates a bacterial density of 10^8 ml^−1. This bacterial suspension was diluted with Müller-Hinton Bouillon using 2-fold dilution series in the agar diffusion test.
(§6) Analysis: The growth in the inhibition zones around the holes containing active substances is thereby compared with the growth in the growth control (no active substance). Bacterial growth was determined according to four measurements: p=presence of colonies in the inhibition zone, P=presence of many colonies in the inhibition zone, A=indication of inhibition, F=facilitation.

[6] = system: Enterococcus faecalis JMRC:ST:33700 (Vancomycin-resistant); experiment: agar diffusion inhibition zone test; assay type: cell-based; details: 1o, 2o 1,000 µg/ml in DMSO; ciprofloxacin 5 µg/ml; solvent DMSO 12P
Description: as §2, §3, §4, §5, §6

[7] = system: Mycobacterium vaccae JMRC:STI:10670; experiment: agar diffusion inhibition zone test; assay type: cell-based; details: Mycolicibacterium vaccae; 1o, 2o 1,000 µg/ml in DMSO; ciprofloxacin 5 µg/ml; solvent DMSO 13P; read-out: inhibition zone diameter, Mycobac. vaccae (M4)
Description: as §2, §3, §4, §5, §6

[8] = system: Pseudomonas aeruginosa JMRC:ST:33772; experiment: agar diffusion inhibition zone test; assay type: cell-based; details: Pseudomonas aeruginosa; 1o, 2o 1,000 µg/ml in DMSO; ciprofloxacin 5 µg/ml; solvent DMSO 13P; read-out: inhibition zone diameter, Pseudomonas aeruginosa JMRC:ST:33772 (B7)
Description: as §2, §3, §4, §5, §6

[9] = system: Staphylococcus aureus JMRC:ST:10760; experiment: agar diffusion inhibition zone test; assay type: cell-based; details: Staphylococcus aureus; 1o, 2o 1,000 µg/ml in DMSO; ciprofloxacin 5 µg/ml; solvent DMSO 12P; read-out: inhibition zone diameter, Staphylococcus aureus (B3)
Description: as §2, §3, §4, §5, §6

[10] = system: Staphylococcus aureus JMRC:ST:33793 (multi-resistant); experiment: agar diffusion inhibition zone test; assay type: cell-based; details: Staphylococcus aureus, MRSA; 1o, 2o 1,000 µg/ml in DMSO; ciprofloxacin 5 µg/ml; solvent DMSO 12P; read-out: inhibition zone diameter, MRSA Staph. aureus (R9)
Description: as §2, §3, §4, §5, §6

[11] = system: P. falciparum (strain 3D7); details: same methods (72 h 3H-hypoxanthine incorporation assay); read-out: IC50 on 3D7; cited from earlier work
[12] = system: P. falciparum strain Dd2; design: method as in PMID 24348249; details: chloroquine-resistant strain Dd2; cited from earlier work
[13] = system: P. falciparum NF54; experiment: IC50 speed assay; assay type: cell-based, Plasmodium falciparum; details: Plasmodium falciparum
Description: To assess the rapidity of growth inhibition induced by the steroid compounds, the so-called IC50 speed assay[16] was conducted for compound 1o on P. falciparum NF54 (Fig. 2a,b).

[14] = molecular target: haem (FeIIIPPIX, π-π dimer); experiment: spectrophotometric titration of haematin π-π dimer; assay type: binding; details: absorption spectrophotometric titration, pH 7.5; read-out: Dissociation Constant KD of haematin-drug complex
[15] = system: haem; experiment: ESI-MS collision-induced dissociation of haem adducts; assay type: binding; details: 50 µM haem and 50 µM substrate
Description: Compound Molar Adduct DV50 Bottom Dissociation mass [Haem+S] (V) plateau Constant
Supplementary Table 7. ESI-MS-CID data (m/z, calculated DV50 = dissociation voltage at 50% and % bottom plateau) of the [haematin-drug]+ adducts and dissociation constants (KD, µM) of the haematin-drug complexes measured with absorption spectrophotometric titrations.
Conditions: 50 µM haem and 50 µM substrate in H2O/CH3CN (5/95) + 0.1% formic acid.
Stability responses of the haem substrate adduct were obtained via ESI-CID experiments.
Positive mode; fragmentor voltage from 20 V to 400 V with 20 V increments. […]
- 41/120 g), and complete dissolution was achieved using an ultrasonic bath. All solutions were protected from daylight to avoid any photochemical degradation. All the physiochemical measurements were carried out at 25.0(2) °C. […]
Electrospray mass spectrometric measurements stopping point
Electrospray mass spectra of the haem complexes were obtained with an Agilent Technologies 6120 quadrupole equipped with an electrospray (ESI) interface. For

[16] = system: P. berghei asexual stages; experiment: ex vivo drug assay (luciferase), asexual stages; assay type: cell-based; details: Plasmodium berghei; 24 h incubation, n=3; read-out: IC50 against P. berghei ex vivo
Description: Plates frozen at −80 °C were thawed at 37 °C. The cells were lysed at room temperature in 10 μl 1x luciferin lysis buffer (Luciferase Cell Culture Lysis 5 × reagent, Promega), and 100 μl luciferase assay substrate was added to each well (Luciferase Assay System, Promega). Luciferase activity was measured on a luminescence plate reader (Mithras LB940 luminometer, Berthold Technologies). The mean of the luciferase activity was calculated for each technical triplicate and normalized as follows: (Lucx−LucRBC)/(Lucsolvent−LucRBC) with Lucx and Lucsolvent=mean luciferase activity for parasites incubated with compound x and with solvent (DMSO for 1o and PBS for MB), respectively, and LucRBC=mean luciferase activity of non-infected red blood cells (background). IC50 values were calculated using Prism (GraphPad, log(inhibitor) versus normalized response—variable slope) in three independent experiments for the P. falciparum gametocyte assay and five for the P. berghei ex vivo drug assay.
The animal experiments described in this part were performed at the Institut de Biologie Moléculaire et Cellulaire (Strasbourg, France), using facilities and protocols adhering to national regulations of laboratory animal welfare in France. […] Parasitaemia was monitored via FACS analysis (FACSCalibur, BD Bioscience). […]

CC(C)CCCC(C)C1CCC2C3CCC4CC(O)C(NCc5ccccc5O)CC4(C)C3CCC12C (stereo not shown) [13c]
IC50 [1]: 465 nM | GI50 [2]: 23700 nM | GI50 [3]: 17700 nM | CC50 [4]: 85300 nM

CC(C)CCCC(C)C1CCC2C3CCC4CC(O)C(NCc5ccccc5O)CC4(C)C3CCC12C (stereo not shown) [14c]
IC50 [1]: 208 nM | GI50 [2]: 6700 nM | GI50 [3]: 8200 nM | CC50 [4]: 21800 nM

O=C(O)c1cn(C2CC2)c2cc(N3CCNCC3)c(F)cc2c1=O [Ciprofloxacin, ciprofloxacin, reference compound]
zone of inhibition at 5 µg/mL [5]: 31 mm | inhibition zone diameter, VRSA Enteroc. faecalis (R10) [6]: 16 mm | zone of inhibition at 5 µg/mL [7]: 21 mm | zone of inhibition at 5 µg/mL [8]: 27 mm | zone of inhibition at 5 µg/mL [9]: 19 mm | zone of inhibition at 5 µg/mL [10]: 0 mm

C[C@@H]1CC[C@H]2[C@@H](C)C(=O)O[C@@H]3O[C@@]4(C)CC[C@@H]1[C@]32OO4 [artemisinin]
IC50 [11]: 17.3 nM | IC50 [12]: 20.4 nM

CCN(CC)CCCC(C)Nc1ccnc2cc(Cl)ccc12 (stereo not shown) [chloroquine]
IC50 ([13]; NF54, 24 h, read-out: IC50 24 h): 8.3 ± 2.1 nM | IC50 ([13]; NF54, 48 h, read-out: IC50 48 h): 7.5 ± 0.9 nM | IC50 ([13]; NF54, 72 h, read-out: IC50 72 h): 7.4 ± 1.1 nM | Kd [14]: 1300 nM | DV50 (dissociation voltage at 50%) of haem adduct ([15]; ESI-CID, 20 V to 400 V): 201 V | Bottom plateau (adduct remaining at 400 V) ([15]; fragmentor voltage 400 V): 0% | IC50 [11]: 8.6 nM | IC50 [12]: 90.2 nM

CN(C)c1ccc2nc3ccc(=[N+](C)C)cc-3sc2c1 [methylene blue, reference compound]
IC50 [16]: 2.6 ± 1.2 nM
